Reference: patent US20200237863A1, “Combination Therapy of Fractionated Radiation and SAPC-DOPS for the Treatment of Tumors” (University of Cincinnati, priority 2017, published 2020)
Residues, ends and D or L forms follow the SMILES beside them. *: point of attachment. Cbz = O=C(OCc1ccccc1)*; CH2F = FC*

Columns and labels:
cfPac-1 cells = assay: Flow cytometric analysis of Annexin V-FITC binding (surface PS) after irradiation; format: cell-based, human; details: cfPac-1 cells irradiated at 10 Gy, 10 μM Z-VAD-fmk, assessed 24 hr later
Experimental: Unless otherwise stated, cells at 60-80% confluency were irradiated and then, after the appropriate time, were trypsinized, resuspended in complete medium, spun down, and washed once with PBS then resuspended in annexin V staining buffer. Cells (1×10^5) were incubated at room temperature in the dark for 15 minutes in a final volume of 100 μl containing 10 μl Annexin V-FITC (Invitrogen, Carlsbad, Calif.) and 2 μg/ml propidium iodide (PI, BD-Pharmingen, Eugene, Oreg.). Annexin V-FITC binding was measured by flow cytometry after adding 400 μl of annexin V binding buffer, using a BD Fortessa. Data was analyzed with BD FACS Diva. For quantifying the annexin V-FITC signal from living cells, PI positive dead cells were gated out and the annexin V-FITC signal was obtained from PI negative forward scattered, cells.
Cells were grown to 60-80% confluence in 60 mm dishes then exposed to (^137Cs) irradiation with a GammaCell 40 Exactor (Nordion international) at doses of 0, 2, 6, 10 or 16 Gy. The media was changed and the cells were processed for surface PS determination at the indicated times. Mice were irradiated at 10 Gy with an Xstrahl D3100 superficial systems (at 100 kV) with 2 cm cone and projected 1 cm deep.

[1] = system: A2058, cfPac-1 and U87MG cell lines; assay: Cell viability (MTT) assay of serially irradiated cells treated with chemotherapeutic drugs; format: cell-based, human; details: 5 Gy weekly for multiple weeks, drug 7 days after last irradiation, MTT 72 hr later
Experimental: Non serially-irradiated cells are designated R0. Media was changed immediately after the irradiation and the cells were split every 3-4 days. Treatments were given 4-7 days following the last 5 Gy irradiation, when the surface PS is still elevated. A) Timeline of the treatment regime. B) Surface PS was determined by Annexin V-FITC staining on Day 4 following the last 5 Gy irradiation. Rx; x=15 for A2058 and 10 for cfPac-1 and U87MG. * p<0.05, ** p<0.01 compared to R0. Shown are the mean and S.D. C-E) Cells were serially irradiated with 5 Gy. (top panel, A2058 cells; middle panel, cfPac-1 cells; bottom panel, U87MG cells) C) 7 days later they were exposed to the indicated doses of radiation and cell viability was determined by MTT assay was performed 72 hr. later. Shown is the % of live cells with 100% as the normalized control for each cell line, * p<0.05. ** p<0.01, compared to R0. D) 7 days after the last 5 Gy irradiation, cells were treated with different doses of gemcitabine (GEM) temozolomide (TMZ) or cisplatin and cell viability was determined by MTT assay was performed 72 hr. later. * p<0.05, ** p<0.01, compared to R0 at the same dose of drug. E.) 7 days following the last 5 Gy irradiation, cells were treated with the indicated doses of SapC-DOPS (1 SapC:7 DOPS, Mol:Mol) and cell viability was determined by MTT assay was performed 72 hr. later. […]

| SMILES | radiation-induced surface PS elevation (Annexin V binding) (cfPac-1 cells) | sensitivity of serially irradiated cells to chemotherapeutic drugs (MTT cell viability) compared to R0 [1] |
| --- | --- | --- |
| COC(=O)C[C@H](NC(=O)[C@H](C)NC(=O)[C@@H](NC(=O)OCc1ccccc1)C(C)C)C(=O)CF [Z-VAD fmk] (Cbz-Val-Ala-Asp(OMe)-CH2F) | completely eliminated the radiation-induced surface PS elevation | – |
| N.N.[Cl][Pt][Cl] [cisplatin] | – | more resistant |
| Nc1ccn([C@@H]2O[C@H](CO)[C@@H](O)C2(F)F)c(=O)n1 [gemcitabine] | – | more resistant |
